The values that follow come from publication PMC8115619, “Generation of a chemical genetic model for JAK3” (Scientific Reports, 2021).

A word on the IC50: it is the midpoint of a concentration-inhibition curve.

Bounds are passed on as bounds.

The subject of test [1] is IL-10 induced STAT3 phosphorylation in BMDMs. Set-up: method as in PMID 26258521. The note with it: cited from earlier work.
Test [2] relates to IFNβ induced STAT1 phosphorylation in BMDMs. Set-up: method as in PMID 26258521. The settings on record: cited from earlier work.
Test [3] has as its system IL-2 induced STAT5 phosphorylation in T cells from JAK3 Cys905Ser knockin mice. Briefly: IL-2 induced STAT5 phosphorylation in JAK3 Cys905Ser knockin T cells. It is filed as cell-based, mouse. The note with it: CD8 T cells, inhibitor 30 min, 10 ng/ml IL-2 30 min. The procedure: (§1) (A) Single cell suspensions were prepared from the spleens of wild type mice. […] Cells were then stimulated with 10 ng/ml IL-4 for 30 min and the levels of phosphorylated STAT6 determined by immunoblotting. (B) As (A) except cells were stimulated with 10 ng/ml IL-2 and the levels of phosphorylated STAT5 determined. (C) CD8 T cells were expanded from the lymph nodes of wild type and JAK3 Cys905Ser knockin mice. Cells were rested in the absence of IL-2 for 60 min then incubated with the indicated concentrations of PF-06651600 for a further 30 min before stimulation with 10 ng/ml of IL-2 for 30 min. The levels of phosphorylated STAT5 and total ERK1/2 were then determined.
(§2) Lymph Nodes were harvested from the mice and a single cell suspension in PBS made by passing the tissue through a […] strainer. The cells were counted and seeded at density of 10^6 cells/ml in RPMI supplemented with10% heat inactivated FBS (Labtech), 2 mM L-glutamine, 100 U/ml penicillin G, 100 μg/ml streptomycin, 0.25 μg/ml amphotericin and 50 μM β-mercaptoethanol and stimulated with 1 μg/ml anti-CD28 (cat:16-0281-82; clone:37.51 Thermo Fisher), 1 μg/ml anti CD3e (cat:16-0031-85, Clone:145-2C11 Thermo Fisher), 20 ng/ml of IL-2 and 1 ng/ml of IL-12. The cells were cultured for 36 h and then the cell suspension was diluted 5 times with RPMI media containing 20 ng/ml of IL-2. […]

Test [4] has as its system JAK1. The note with it: ATP 40 μM; read-out: In vitro IC50 JAK1; cited from earlier work.
Test [5] has as its system IL-2 induced STAT5 phosphorylation in wild type CD8 T cells. Briefly: IL-2 induced STAT5 phosphorylation in wild type T cells. Format: cell-based, mouse. The settings on record: inhibitor 30 min, 10 ng/ml IL-2 30 min. The procedure: as §1, §2

Regarding `C=CC(=O)Nc1cccc(CNc2nc(Nc3ccc(N4CCN(C)CC4)cc3OC)ncc2Cl)c1` [TL6-144], in test [1] (5 μM), the “inhibition of IL-10 signaling in macrophages” value is “does not inhibit”. Moreover, in test [1] (10 μM as printed in discussion), the “block of STAT phosphorylation by IL-10” value was “did not block”. The “inhibition of IFNβ signaling in macrophages” value in test [2] (5 μM) is “does not inhibit”. Besides, the “block of STAT phosphorylation by IFNβ” value in test [2] (10 μM as printed in discussion) was “did not block”.

Consider `C=CC(=O)N1C[C@H](Nc2ncnc3[nH]ccc23)CC[C@@H]1C` [PF-06651600, 1-((2S,5R)-5-((7H-Pyrrolo[2,3-d]pyrimidin-4-yl)amino)-2-methylpiperidin-1-yl)prop-2-en-1-one, reference compound], for which the “block of IL-2 induced STAT5 phosphorylation in T cells from JAK3 Cys905Ser knockin mice” value in test [3] was “did not block”. Besides, the IC50 in test [4] was above 10 µM. For the same compound, the “block of IL-2 induced STAT5 phosphorylation in isolated wild type T cells” value in test [5] was “able to block”.
